Results from patent US20260248772A1, “NOVEL SULFANONE DERIVATIVE OR PHARMACEUTICALLY ACCEPTABLE SALT THEREOF, AND USE THEREOF” (KOREA INSTITUTE OF SCIENCE AND TECHNOLOGY, priority 2022, published 2026).
Where a name gives a salt, the structure may show the parent alone.

Legend:
CYP2C9 = CYP2C9 (Homo sapiens, UniProt P11712); test: in vitro; conditions: human liver microsomes, pH 7.4, probe Diclofenac 10 μM (in five-substrate cocktail)
[1] = test system: BV-2 mouse microglial cells; test: NO (nitric oxide) inhibitory activity in LPS-treated microglial cells; type: cell-based; conditions: LPS 1 μg/ml, 24 hours, read-out: Amount of NO (% of control)
CYP2C19 = CYP2C19 (Homo sapiens, UniProt P33261); test: in vitro; conditions: human liver microsomes, pH 7.4, probe S-mephenytoin 100 μM (in five-substrate cocktail)
CYP1A2 = target: T1, CYP1A2 (Homo sapiens, UniProt P05177); test: in vitro; conditions: human liver microsomes, pH 7.4, probe Phenacetin 50 μM (in five-substrate cocktail)
T1 sequence (P05177 1-516): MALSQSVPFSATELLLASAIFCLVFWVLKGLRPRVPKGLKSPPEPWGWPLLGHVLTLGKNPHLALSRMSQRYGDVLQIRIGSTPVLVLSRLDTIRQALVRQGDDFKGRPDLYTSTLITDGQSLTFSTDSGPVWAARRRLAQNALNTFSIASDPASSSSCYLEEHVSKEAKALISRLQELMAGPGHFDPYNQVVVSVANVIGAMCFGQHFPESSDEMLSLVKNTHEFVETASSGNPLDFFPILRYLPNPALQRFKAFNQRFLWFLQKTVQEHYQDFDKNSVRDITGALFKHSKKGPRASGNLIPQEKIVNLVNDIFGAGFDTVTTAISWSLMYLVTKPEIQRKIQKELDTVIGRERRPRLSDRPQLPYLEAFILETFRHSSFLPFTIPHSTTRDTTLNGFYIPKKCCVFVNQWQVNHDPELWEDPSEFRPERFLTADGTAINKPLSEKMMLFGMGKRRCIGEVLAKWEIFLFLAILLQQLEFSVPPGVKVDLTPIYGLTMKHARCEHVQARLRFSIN

CYP3A4 = CYP3A4 (Homo sapiens, UniProt P08684); test: in vitro; conditions: human liver microsomes, pH 7.4, probe Midazolam […] (in five-substrate cocktail)
CYP2D6 = CYP2D6 (Homo sapiens, UniProt P10635); test: in vitro; conditions: human liver microsomes, pH 7.4, probe Dextromethorphan 5 μM (in five-substrate cocktail)
[2] = Metabolic stability using liver microsomes; type: in vitro ADME, Human; conditions: for drug remaining after incubation with microsomes: after 30 minutes; for Human (% remaining): liver microsomes, 30 minutes at 37° C.
Nrf2 = Nrf2 functional cell-based assay (DiscoveRx), luminescence; conditions: U2OS cells; for EC50: 6 hours incubation, read-out: Nrf2 activation EC50
[3] = known; cited from earlier work
[4] = Metabolic stability using liver microsomes; type: in vitro ADME, Mouse; conditions: 30 minutes
[5] = Metabolic stability using liver microsomes; type: in vitro ADME, Rat; conditions: 30 minutes
Method: Therefore, in order to predict the extent of drug metabolism by the liver, the main organ for drug metabolism, through in vitro experiments, the metabolic stability of drugs was evaluated using liver microsomes.
Then, an NADPH regeneration system solution was added thereto and the mixed solution was incubated at 37° C. for 30 minutes.

Sequence of CYP2C9 (P11712 whole entry): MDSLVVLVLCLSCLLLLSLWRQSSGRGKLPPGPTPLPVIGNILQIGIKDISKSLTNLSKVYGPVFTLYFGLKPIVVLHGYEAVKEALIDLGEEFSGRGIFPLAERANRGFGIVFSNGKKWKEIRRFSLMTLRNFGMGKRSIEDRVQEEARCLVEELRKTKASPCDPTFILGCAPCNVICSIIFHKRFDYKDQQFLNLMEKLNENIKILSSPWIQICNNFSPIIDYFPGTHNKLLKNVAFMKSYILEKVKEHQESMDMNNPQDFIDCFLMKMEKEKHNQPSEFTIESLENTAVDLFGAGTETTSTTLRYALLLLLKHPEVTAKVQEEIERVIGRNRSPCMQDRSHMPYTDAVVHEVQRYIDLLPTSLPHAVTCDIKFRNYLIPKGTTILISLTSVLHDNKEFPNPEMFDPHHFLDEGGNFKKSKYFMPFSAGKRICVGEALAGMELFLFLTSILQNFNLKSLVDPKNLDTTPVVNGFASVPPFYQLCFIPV
Sequence of CYP2C19 (P33261 whole entry): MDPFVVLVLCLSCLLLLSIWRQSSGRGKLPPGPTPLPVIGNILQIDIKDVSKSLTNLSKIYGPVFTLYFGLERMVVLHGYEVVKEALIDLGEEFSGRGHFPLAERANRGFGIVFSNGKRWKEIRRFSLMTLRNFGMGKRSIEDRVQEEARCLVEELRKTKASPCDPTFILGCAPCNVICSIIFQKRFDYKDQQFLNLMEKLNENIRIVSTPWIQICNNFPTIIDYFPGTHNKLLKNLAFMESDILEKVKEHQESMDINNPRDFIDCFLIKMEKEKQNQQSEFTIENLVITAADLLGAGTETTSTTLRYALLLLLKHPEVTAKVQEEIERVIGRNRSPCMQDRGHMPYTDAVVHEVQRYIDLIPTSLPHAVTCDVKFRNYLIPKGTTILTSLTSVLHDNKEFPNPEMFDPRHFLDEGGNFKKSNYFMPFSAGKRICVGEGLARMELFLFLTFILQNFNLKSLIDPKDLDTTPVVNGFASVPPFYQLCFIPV
Sequence of CYP2D6 (P10635 whole entry): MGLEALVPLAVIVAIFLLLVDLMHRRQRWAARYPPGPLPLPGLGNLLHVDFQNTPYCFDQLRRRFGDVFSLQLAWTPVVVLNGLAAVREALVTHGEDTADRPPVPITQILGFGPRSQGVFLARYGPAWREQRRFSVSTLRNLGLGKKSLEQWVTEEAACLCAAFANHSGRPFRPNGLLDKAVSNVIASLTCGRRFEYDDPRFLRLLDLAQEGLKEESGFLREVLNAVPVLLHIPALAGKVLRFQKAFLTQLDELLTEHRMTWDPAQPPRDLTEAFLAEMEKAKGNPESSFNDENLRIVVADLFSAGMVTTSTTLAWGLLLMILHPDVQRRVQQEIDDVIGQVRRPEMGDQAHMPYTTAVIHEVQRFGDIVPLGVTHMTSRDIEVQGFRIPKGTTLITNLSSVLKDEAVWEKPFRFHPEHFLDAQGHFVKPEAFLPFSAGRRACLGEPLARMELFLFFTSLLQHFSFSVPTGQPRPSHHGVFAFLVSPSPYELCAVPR
Sequence of CYP3A4 (P08684 whole entry): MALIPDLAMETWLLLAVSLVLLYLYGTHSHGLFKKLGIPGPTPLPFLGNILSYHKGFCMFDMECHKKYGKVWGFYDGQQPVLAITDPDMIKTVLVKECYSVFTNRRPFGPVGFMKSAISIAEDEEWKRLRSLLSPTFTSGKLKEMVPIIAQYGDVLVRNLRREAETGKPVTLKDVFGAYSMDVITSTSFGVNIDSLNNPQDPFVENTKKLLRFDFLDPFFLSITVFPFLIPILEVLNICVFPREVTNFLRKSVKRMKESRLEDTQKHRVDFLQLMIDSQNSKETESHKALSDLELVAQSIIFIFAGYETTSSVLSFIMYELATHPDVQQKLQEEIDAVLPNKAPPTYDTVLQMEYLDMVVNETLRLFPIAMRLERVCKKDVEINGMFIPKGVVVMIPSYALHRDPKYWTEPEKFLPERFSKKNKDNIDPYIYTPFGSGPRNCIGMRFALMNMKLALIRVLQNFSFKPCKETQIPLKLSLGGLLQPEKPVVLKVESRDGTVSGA

SMILES | activity at 15 min, 10 µM (CYP2C9) [%] | activity at 10 µM [1] [%] | activity at 15 min, 10 µM (CYP2C19) [%] | activity at 15 min, 10 µM (CYP1A2) [%] | activity at 15 min, 10 µM (CYP3A4) [%] | activity at 15 min, 10 µM (CYP2D6) [%] | further results
N=S(=O)(/C=C/c1ccccn1)c1ccccc1F (stereo not drawn) [Compound 1-1, (E)-(2-Fluorophenyl)(imino)(2-(pyridin-2-yl)vinyl)-λ^6-sulfanone] | 85.7 | < 3 | 66.9 | 87.8 | 121 | 82.7 | activity at 0.1 µM [1]: 97%; activity at 1 µM [1]: 74.2%
COc1ccc(S(=N)(=O)/C=C/c2ccccn2)cc1 (stereo not drawn) [Compound 1-2, (E)-Imino(4-methoxyphenyl)(2-(pyridin-2-yl)vinyl)-λ^6-sulfanone] | 96.6 | 35.8 | 70.4 | 88.9 | 97.5 | 98.6 | drug remaining after incubation with microsomes [2]: remained at a high concentration; activity at 0.1 µM [1]: 110%; activity at 1 µM [1]: 115%
N=S(=O)(/C=C/c1ncccc1Cl)c1ccccc1Cl (stereo not drawn) [Compound 1-4, (E)-(2-chlorophenyl)(2-(3-chloropyridin-2-yl)vinyl)(imino)-λ^6-sulfanone] |  |  |  |  |  |  | drug remaining after incubation with microsomes [2]: remained at a high concentration
N=S(=O)(/C=C/c1ncccc1F)c1ccccc1F (stereo not drawn) [Compound 1-5, (E)-(2-fluorophenyl)(2-(3-fluoropyridin-2-yl)vinyl)(imino)-λ^6-sulfanone] |  | 7.96 |  |  |  |  | activity at 0.1 µM [1]: 101%; activity at 1 µM [1]: 69.2%
COc1ccccc1S(=N)(=O)/C=C/c1ncccc1Cl (stereo not drawn) [Compound 1-8, (E)-(2-(3-chloropyridin-2-yl)vinyl)(imino)(2-methoxyphenyl)-λ^6-sulfanone] | 192 | 14.2 | 24.4 | 84.4 | 78.4 | 93.9 | 
COc1ccc(S(=N)(=O)/C=C/c2ncccc2Cl)cc1 (stereo not drawn) [Compound 1-10, (E)-(2-(3-chloropyridin-2-yl)vinyl)(imino)(4-methoxyphenyl)-λ^6-sulfanone] | 133 | < 3 | 6 | 103 | 109 | 112 | 
N=S(=O)(/C=C/c1cccnc1)c1ccccc1Cl (stereo not drawn) [Compound 1-12, (E)-(2-chlorophenyl)(imino)(2-(pyridin-3-yl)vinyl)-λ^6-sulfanone] | 87.1 |  | 68.2 | 86.8 | 104 | 94.4 | EC50 (Nrf2): > 10000 nM
N=S(=O)(/C=C/c1cccnc1Cl)c1ccccc1Cl (stereo not drawn) [Compound 1-13, (E)-(2-chlorophenyl)(2-(2-chloropyridin-3-yl)vinyl)(imino)-λ^6-sulfanone] | 169 | 9.26 | 27.8 | 93.3 | 59.8 | 95.7 | 
N=S(=O)(/C=C/c1cccc(Cl)c1)c1ccccn1 (stereo not drawn) [Compound 1-16, (E)-(3-chlorostyryl)(imino)(pyridin-2-yl)-λ^6-sulfanone] |  | < 3 |  |  |  |  | 
N=S(=O)(/C=C/c1ccccc1C(F)(F)F)c1ccccn1 (stereo not drawn) [Compound 1-17, (E)-imino(pyridin-2-yl)(2-(trifluoromethyl)styryl)-λ^6-sulfanone] |  | < 3 |  |  |  |  | 
N=S(=O)(/C=C/c1ccccc1OC(F)(F)F)c1ccccn1 (stereo not drawn) [Compound 1-18, (E)-imino(pyridin-2-yl)(2-(trifluoromethoxy)styryl)-λ^6-sulfanone] |  | < 3 |  |  |  |  | 
N=S(=O)(/C=C/c1ccc(Cl)cc1)c1ccccn1 (stereo not drawn) [Compound 1-20, (E)-(4-chlorostyryl)(imino)(pyridin-2-yl)-λ^6-sulfanone] |  | 20.3 |  |  |  |  | 
C[Si](C)(C)N=S(=O)(/C=C/c1ccccc1Cl)c1ccncc1F (stereo not drawn) [Compound 1-46, (E)-(2-chlorostyryl)(3-fluoropyridin-4-yl)((trimethylsilyl)imino)-λ^6-sulfanone] |  |  |  |  |  |  | Nrf2 activation effect compared with Sulforaphane (Nrf2): better Nrf2 activation effect than Sulforaphane
N=S(=O)(/C=C/c1ncccc1F)c1ccc(OCCCN2CCOCC2)cn1 (stereo not drawn) [Compound 1-53, (E)-(2-(3-fluoropyridin-2-yl)vinyl)(imino)(5-(3-morpholinopropoxy)pyridin-2-yl)-λ^6-sulfanone] |  |  |  |  |  |  | EC50 (Nrf2): 604 nM
COc1ccccc1S(=O)(/C=C/c1ccccc1Cl)=NC#N (stereo not drawn) [Compound 1-57, (E)-N-((2-chlorostyryl)(2-methoxyphenyl)(oxo)-λ^6-sulfanylidene)cyanamide] |  |  |  |  |  |  | Nrf2 activation effect compared with Sulforaphane (Nrf2): better Nrf2 activation effect than Sulforaphane
COc1ccccc1S(=O)(/C=C/c1ncccc1Cl)=NC#N (stereo not drawn) [Compound 1-58, (E)-N-((2-(3-chloropyridin-2-yl)vinyl)(2-methoxyphenyl)(oxo)-λ^6-sulfaneylidene)cyanamide] |  |  |  |  |  |  | EC50 (Nrf2): 658 nM
COC(=O)/C=C/C(=O)OC [DMF, Dimethyl fumarate, reference compound] |  | 16.3 |  |  |  |  | activity at 0.1 µM [1]: 113%; activity at 1 µM [1]: 60%
C[S+]([O-])CCCCN=C=S (stereo not drawn) [Sulforaphane, 1-isothiocyanato-4-methylsulfinylbutane] |  |  |  |  |  |  | concentration at which high toxicity is exhibited [3]: ≥ 5 M
O=S(=O)(/C=C/c1ncccc1Cl)c1ccccc1F [drawing 157, reference compound] | 45.5 |  | 16.6 | 95.8 | 105 | 86.1 | 
O=S(=O)(/C=C/c1ncccc1Cl)c1ccccc1F [drawing 173] |  |  |  |  |  |  | Human (% remaining) [2]: 72 % remaining; Mouse (% remaining) [4]: 19 % remaining; Rat (% remaining) [5]: 23 % remaining
O=S(=O)(/C=C/c1ccccn1)c1ccccc1F [reference compound] | 230 |  | 38.4 | 93 | 104 | 92.4 | 
COc1ccccc1S(=O)(=O)/C=C/c1ncccc1Cl [reference compound] | 209 |  |  |  |  |  | 
COc1ccc(S(=O)(=O)/C=C/c2ncccc2Cl)cc1 [reference compound] | 196 |  |  |  |  |  | 
O=S(=O)(/C=C/c1cccnc1)c1ccccc1Cl [reference compound] | 118 |  | 33.4 | 84 | 74.2 | 101 | 
O=S(=O)(/C=C/c1cccnc1Cl)c1ccccc1Cl [reference compound] | 88.7 |  | 28.3 | 85.6 | 81.2 | 93.8 | 
O=S(=O)(/C=C/c1ncccc1Cl)c1ccccc1Cl [reference compound] |  |  |  |  |  |  | Human (% remaining) [2]: 66 % remaining; Mouse (% remaining) [4]: 4.5 % remaining
